Experimental data as given in US20260226068A1, “IMIDAZOTRIAZINE IL-17A MODULATORS AND USES THEREOF” (DICE ALPHA, INC., priority 2023, published 2026).
pIC50: −log10 of the molar value. Values belong to the molecule of their own block, whether it stands above or below them.

Tests used:
[1] = target: T1, IL-17A/A (Homo sapiens, UniProt Q16552); assay: IL-17A/A HEK-Blue cell assay (SEAP reporter); format: cell-based; conditions: HEK-Blue IL-17A reporter cells, IL17A/A 5 ng/mL, 20 hours, SEAP read at A630; read-out: HEK-Blue IL17AA (IC50 for IL-17A/A inhibition)
T1 construct: purchased Genscript Z03228
T1 sequence (Q16552 24-155): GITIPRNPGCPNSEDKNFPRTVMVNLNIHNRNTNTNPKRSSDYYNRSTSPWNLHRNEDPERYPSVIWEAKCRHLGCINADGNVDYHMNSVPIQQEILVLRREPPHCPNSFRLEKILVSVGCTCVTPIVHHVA

[2] = target: T2, IL-17A/F (Homo sapiens, UniProt Q16552+Q96PD4); assay: IL-17A/F HEK-Blue cell assay (SEAP reporter); format: cell-based; conditions: HEK-Blue IL-17A reporter cells, IL17A/F 5 ng/mL, 20 hours, SEAP read at A630; read-out: HEK-Blue IL17AF (IC50 for IL-17A/F inhibition)
T2 construct: purchased R&D Systems
T2 sequence (Q16552 24-155): T1 sequence (Q16552 24-155)
T2 sequence (Q96PD4 31-163): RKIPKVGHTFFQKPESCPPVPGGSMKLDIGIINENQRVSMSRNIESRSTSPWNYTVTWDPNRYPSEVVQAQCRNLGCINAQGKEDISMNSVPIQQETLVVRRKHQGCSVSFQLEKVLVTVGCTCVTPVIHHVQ

Compound: Cn1nccc1C(=O)N[C@H](c1cn2nc(C[C@H]3C[C@@H](C(F)(F)F)CNC3=O)c(C3CCOCC3)nc2n1)C1CCC(F)(F)CC1 [Compound 150, N-((1S)-(4,4-difluorocyclohexyl)(2-(((3R,5R)-2-oxo-5-(trifluoromethyl)piperidin-3-yl)methyl)-3-(tetrahydro-2H-pyran-4-yl)imidazo[1,2-b][1,2,4]triazin-6-yl)methyl)-1-methyl-1H-pyrazole-5-carboxamide]
pIC50 [1]: > 7.00
pIC50 [2]: 6.00 to 7.00

Compound: O=C(N[C@H](c1cn2nc(C[C@H]3C[C@@H](C(F)(F)F)CNC3=O)c(C3CCOCC3)nc2n1)C1CCC(F)(F)CC1)c1ccn[nH]1 [Compound 154, N-((1S)-(4,4-difluorocyclohexyl)(2-(((3R,5R)-2-oxo-5-(trifluoromethyl)piperidin-3-yl)methyl)-3-(tetrahydro-2H-pyran-4-yl)imidazo[1,2-b][1,2,4]triazin-6-yl)methyl)-1H-pyrazole-5-carboxamide]
pIC50 [1]: > 7.00
pIC50 [2]: < 6.00

Compound: CCn1nccc1C(=O)N[C@H](c1cn2nc(C[C@H]3C[C@H](C(F)(F)F)CNC3=O)c(C3CCOCC3)nc2n1)[C@H]1CC[C@H](C)CC1 [Compound 155, 1-ethyl-N-((1S)-((1r,4S)-4-methylcyclohexyl)(2-(((3R,5S)-2-oxo-5-(trifluoromethyl)piperidin-3-yl)methyl)-3-(tetrahydro-2H-pyran-4-yl)imidazo[1,2-b][1,2,4]triazin-6-yl)methyl)-1H-pyrazole-5-carboxamide]
pIC50 [1]: > 7.00
pIC50 [2]: 6.00 to 7.00

Compound: CCn1nccc1C(=O)N[C@H](c1cn2nc(C[C@H]3C[C@H](C(F)(F)F)CNC3=O)c(C(C)(C)C)nc2n1)C1CCC(F)(F)CC1 [Compound 156, N-((1S)-(4,4-difluorocyclohexyl)(3-(tert-butyl)-2-(((3R,5S)-2-oxo-5-(trifluoromethyl)piperidin-3-yl)methyl)imidazo[1,2-b][1,2,4]triazin-6-yl)methyl)-1-ethyl-1H-pyrazole-5-carboxamide]
pIC50 [1]: > 7.00
pIC50 [2]: < 6.00

Compound: CCn1nccc1C(=O)N[C@H](c1cn2nc(C[C@H]3C[C@@H](C(F)(F)F)CNC3=O)c(N3CCO[C@@H](C)C3)nc2n1)[C@H]1CC[C@H](C)CC1 [Compound 158, 1-ethyl-N—((S)-((1r,4S)-4-methylcyclohexyl)(3-((S)-2-methylmorpholino)-2-(((3R,5R)-2-oxo-5-(trifluoromethyl)piperidin-3-yl)methyl)imidazo[1,2-b][1,2,4]triazin-6-yl)methyl)-1H-pyrazole-5-carboxamide]
pIC50 [1]: > 7.00
pIC50 [2]: 6.00 to 7.00

Compound: CCn1nccc1C(=O)N[C@H](c1cn2nc(C[C@H]3C[C@H](C(F)(F)F)CNC3=O)c(C(C)(C)F)nc2n1)C1CCC(F)(F)CC1 [Compound 161, N-((1S)-(4,4-difluorocyclohexyl)(3-(2-fluoropropan-2-yl)-2-(((3R,5S)-2-oxo-5-(trifluoromethyl)piperidin-3-yl)methyl)imidazo[1,2-b][1,2,4]triazin-6-yl)methyl)-1-ethyl-1H-pyrazole-5-carboxamide]
pIC50 [1]: > 7.00
pIC50 [2]: < 6.00

Compound: CCn1nccc1C(=O)N[C@H](c1cn2nc(C[C@H]3C[C@@H](C(F)(F)F)CNC3=O)c(CC3CCCO3)nc2n1)C1CCC(F)(F)CC1 (stereo partly drawn) [Compound 171, N-((1S)-(4,4-difluorocyclohexyl)(2-(((3R,5R)-2-oxo-5-(trifluoromethyl)piperidin-3-yl)methyl)-3-((tetrahydrofuran-2-yl)methyl)imidazo[1,2-b][1,2,4]triazin-6-yl)methyl)-1-ethyl-1H-pyrazole-5-carboxamide]
pIC50 [1]: > 7.00
pIC50 [2]: 6.00 to 7.00

Compound: CCn1nccc1C(=O)N[C@H](c1cn2nc(C[C@H]3C[C@@H](C(F)(F)F)CNC3=O)c(CC3CCCCO3)nc2n1)C1CCC(F)(F)CC1 (stereo partly drawn) [Compound 172, N-((1S)-(4,4-difluorocyclohexyl)(2-(((3R,5R)-2-oxo-5-(trifluoromethyl)piperidin-3-yl)methyl)-3-((tetrahydro-2H-pyran-2-yl)methyl)imidazo[1,2-b][1,2,4]triazin-6-yl)methyl)-1-ethyl-1H-pyrazole-5-carboxamide]
pIC50 [1]: > 7.00
pIC50 [2]: 6.00 to 7.00

More lines, now with the values ahead:

pIC50 [1]: > 7.00
pIC50 [2]: 6.00 to 7.00
Compound: CCc1nonc1C(=O)N[C@H](c1cn2nc(C[C@H]3C[C@@H](C(F)(F)F)CNC3=O)c(C3CCOCC3)nc2n1)C1CCC(F)(F)CC1 [Compound 149, N-((1S)-(4,4-difluorocyclohexyl)(2-(((3R,5R)-2-oxo-5-(trifluoromethyl)piperidin-3-yl)methyl)-3-(tetrahydro-2H-pyran-4-yl)imidazo[1,2-b][1,2,4]triazin-6-yl)methyl)-4-ethyl-1,2,5-oxadiazole-3-carboxamide]

pIC50 [1]: > 7.00
pIC50 [2]: 6.00 to 7.00
Compound: CCn1nccc1C(=O)N[C@H](c1cn2nc(C[C@H]3C[C@@H](C(F)(F)F)NC3=O)c(C3CCOCC3)nc2n1)C1CCC(F)(F)CC1 [Compound 151, N—((S)-(4,4-difluorocyclohexyl)(2-(((3R,5S)-2-oxo-5-(trifluoromethyl)pyrrolidin-3-yl)methyl)-3-(tetrahydro-2H-pyran-4-yl)imidazo[1,2-b][1,2,4]triazin-6-yl)methyl)-1-ethyl-1H-pyrazole-5-carboxamide]

pIC50 [1]: > 7.00
pIC50 [2]: 6.00 to 7.00
Compound: CCn1nccc1C(=O)N[C@H](c1cn2nc(C[C@H]3C[C@@H](C(F)(F)F)NC3=O)c(C3CCOCC3)nc2n1)[C@H]1CC[C@H](C)CC1 [Compound 152, 1-ethyl-N—((S)-((1R,4S)-4-methylcyclohexyl)(2-(((3R,5S)-2-oxo-5-(trifluoromethyl)pyrrolidin-3-yl)methyl)-3-(tetrahydro-2H-pyran-4-yl)imidazo[1,2-b][1,2,4]triazin-6-yl)methyl)-1H-pyrazole-5-carboxamide]

pIC50 [1]: > 7.00
pIC50 [2]: > 7.00
Compound: CCn1nccc1C(=O)N[C@H](c1cn2nc(C[C@H]3C[C@@H](C(F)(F)F)CNC3=O)c(N3CCO[C@H](C)C3)nc2n1)[C@H]1CC[C@H](C)CC1 [Compound 157, 1-ethyl-N—((S)-((1r,4S)-4-methylcyclohexyl)(3-((R)-2-methylmorpholino)-2-(((3R,5R)-2-oxo-5-(trifluoromethyl)piperidin-3-yl)methyl)imidazo[1,2-b][1,2,4]triazin-6-yl)methyl)-1H-pyrazole-5-carboxamide]

pIC50 [1]: > 7.00
pIC50 [2]: 6.00 to 7.00
Compound: CCn1nccc1C(=O)N[C@H](c1cn2nc(C[C@H]3C[C@@H](C(F)(F)F)CNC3=O)c(N3CCC4(CCOCC4)C3)nc2n1)C1CCC(F)(F)CC1 [Compound 162, N—((S)-(4,4-difluorocyclohexyl)(2-(((3R,5R)-2-oxo-5-(trifluoromethyl)piperidin-3-yl)methyl)-3-(8-oxa-2-azaspiro[4.5]decan-2-yl)imidazo[1,2-b][1,2,4]triazin-6-yl)methyl)-1-ethyl-1H-pyrazole-5-carboxamide]

pIC50 [1]: > 7.00
pIC50 [2]: 6.00 to 7.00
Compound: CCn1nccc1C(=O)N[C@H](c1cn2nc(C[C@H]3C[C@@H](C(F)(F)F)CNC3=O)c(C3(C)CCOCC3)nc2n1)C1CCC(F)(F)CC1 [Compound 164, N-((1S)-(4,4-difluorocyclohexyl)(3-(4-methyltetrahydro-2H-pyran-4-yl)-2-(((3R,5R)-2-oxo-5-(trifluoromethyl)piperidin-3-yl)methyl)imidazo[1,2-b][1,2,4]triazin-6-yl)methyl)-1-ethyl-1H-pyrazole-5-carboxamide]

pIC50 [1]: > 7.00
pIC50 [2]: 6.00 to 7.00
Compound: CCc1nc2nc([C@@H](NC(=O)c3ccnn3CC)C3CCC(F)(F)CC3)cn2nc1C[C@H]1C[C@@H](C(F)(F)F)CNC1=O [Compound 167, N-((1S)-(4,4-difluorocyclohexyl)(3-ethyl-2-(((3R,5R)-2-oxo-5-(trifluoromethyl)piperidin-3-yl)methyl)imidazo[1,2-b][1,2,4]triazin-6-yl)methyl)-1-ethyl-1H-pyrazole-5-carboxamide]

pIC50 [1]: > 7.00
pIC50 [2]: 6.00 to 7.00
Compound: CCn1nccc1C(=O)N[C@H](c1cn2nc(C[C@H]3C[C@@H](C(F)(F)F)CNC3=O)c(CC3COC3)nc2n1)C1CCC(F)(F)CC1 [Compound 168, N-((1S)-(4,4-difluorocyclohexyl)(3-(oxetan-3-ylmethyl)-2-(((3R,5R)-2-oxo-5-(trifluoromethyl)piperidin-3-yl)methyl)imidazo[1,2-b][1,2,4]triazin-6-yl)methyl)-1-ethyl-1H-pyrazole-5-carboxamide]

pIC50 [1]: > 7.00
pIC50 [2]: < 6.00
Compound: CCn1nccc1C(=O)N[C@H](c1cn2nc(C[C@H]3C[C@@H](C(F)(F)F)CNC3=O)c(C(C)(C)C3CCOCC3)nc2n1)C1CCC(F)(F)CC1 [Compound 169, N-((1S)-(4,4-difluorocyclohexyl)(2-(((3R,5R)-2-oxo-5-(trifluoromethyl)piperidin-3-yl)methyl)-3-(2-(tetrahydro-2H-pyran-4-yl)propan-2-yl)imidazo[1,2-b][1,2,4]triazin-6-yl)methyl)-1-ethyl-1H-pyrazole-5-carboxamide]

pIC50 [1]: > 7.00
pIC50 [2]: 6.00 to 7.00
Compound: CCn1nccc1C(=O)N[C@H](c1cn2nc(C[C@H]3C[C@@H](C(F)(F)F)CNC3=O)c(CC3CCOC3)nc2n1)C1CCC(F)(F)CC1 (stereo partly drawn) [Compound 170, N-((1S)-(4,4-difluorocyclohexyl)(2-(((3R,5R)-2-oxo-5-(trifluoromethyl)piperidin-3-yl)methyl)-3-((tetrahydrofuran-3-yl)methyl)imidazo[1,2-b][1,2,4]triazin-6-yl)methyl)-1-ethyl-1H-pyrazole-5-carboxamide]
